Reference: PMC4642672, “The GH5 1,4-β-mannanase from Bifidobacterium animalis subsp. lactis Bl-04 possesses a low-affinity mannan-binding module and highlights the diversity of mannanolytic enzymes” (BMC Biochemistry, 2015)

Tests used:
BlMan5_8 = biological target: T1, BlMan5_8 (Bifidobacterium animalis, UniProt B8DWU0); assay: surface plasmon resonance, steady state, enzyme immobilised by amine coupling; assay type: binding; conditions: 10 mM MES, 150 mM NaCl, 0.005% P20, pH 6.0, 25 °C, one-site fit
T1 construct: gene BLA_0648; mature enzyme without signal peptide (residues 1-29 removed), GH5_8 + C-terminal CBM10; N-terminal His6 tag cleaved by thrombin; E. coli BL21(DE3)
Description: surface plasmon resonance, steady state, enzyme immobilised by amine coupling on BlMan5_8

BlMan5_8-ΔCBM10 = biological target: T2, BlMan5_8-ΔCBM10 (Bifidobacterium animalis, UniProt B8DWU0); assay: as above; assay type: binding; conditions: 10 mM MES, 150 mM NaCl, 0.005% P20, pH 6.0, 25 °C; one-site fit; catalytic module
T2 construct: gene BLA_0648; catalytic GH5_8 module, C-terminal CBM10 deleted by stop codon at Ser338 in linker; signal peptide (1-29) removed; N-terminal His6 tag cleaved by thrombin; E. coli BL21(DE3)
Description: surface plasmon resonance, steady state, enzyme immobilised by amine coupling on BlMan5_8-ΔCBM10

[1] = catalytic module and CBM10 both bind

T1 sequence (B8DWU0 entry or part of it): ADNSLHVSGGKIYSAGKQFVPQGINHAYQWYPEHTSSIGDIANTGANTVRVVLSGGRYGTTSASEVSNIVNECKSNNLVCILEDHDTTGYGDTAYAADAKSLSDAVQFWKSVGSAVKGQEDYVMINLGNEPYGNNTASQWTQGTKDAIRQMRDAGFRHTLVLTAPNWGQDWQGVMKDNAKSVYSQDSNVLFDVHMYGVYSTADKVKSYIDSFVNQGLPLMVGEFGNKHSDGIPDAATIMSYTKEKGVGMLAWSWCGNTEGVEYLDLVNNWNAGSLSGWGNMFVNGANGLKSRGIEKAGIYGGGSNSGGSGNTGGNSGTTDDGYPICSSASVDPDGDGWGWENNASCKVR
T2 sequence (B8DWU0 entry or part of it, stated change not applied): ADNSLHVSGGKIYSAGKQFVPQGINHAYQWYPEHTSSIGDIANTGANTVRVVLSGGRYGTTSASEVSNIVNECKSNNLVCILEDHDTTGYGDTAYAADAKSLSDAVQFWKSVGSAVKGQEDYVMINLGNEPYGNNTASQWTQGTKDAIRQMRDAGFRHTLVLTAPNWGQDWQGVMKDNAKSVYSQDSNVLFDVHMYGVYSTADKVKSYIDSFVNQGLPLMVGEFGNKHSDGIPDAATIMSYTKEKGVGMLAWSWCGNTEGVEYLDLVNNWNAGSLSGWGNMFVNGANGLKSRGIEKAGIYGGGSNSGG

| Kd (BlMan5_8; CBM10 site suggested) [µM] | Kd (BlMan5_8-ΔCBM10) [µM] | Kd (BlMan5_8; [1]) [µM] | SMILES |
| --- | --- | --- | --- |
| 5100 ± 800 | – | – | OC[C@H]1O[C@@H](O[C@H]2[C@H](O)[C@H](O)[C@H](O[C@H]3[C@H](O)[C@H](O)[C@H](O[C@H]4[C@H](O)[C@H](O)C(O)O[C@@H]4CO)O[C@@H]3CO)O[C@@H]2CO)[C@@H](O)[C@@H](O)[C@@H]1O (some centres unmarked) [M4, mannotetraose] |
| – | 1500 ± 300 | 3700 ± 300 | OC[C@H]1O[C@@H](O[C@H]2[C@H](O)[C@H](O)[C@H](O[C@H]3[C@H](O)[C@H](O)[C@H](O[C@H]4[C@H](O)[C@H](O)[C@H](O[C@H]5[C@H](O)[C@H](O)C(O)O[C@@H]5CO)O[C@@H]4CO)O[C@@H]3CO)O[C@@H]2CO)[C@@H](O)[C@@H](O)[C@@H]1O (some centres unmarked) [M5, mannopentaose] |
| – | 240 ± 420 | 580 ± 50 | OC[C@H]1O[C@@H](O[C@H]2[C@H](O)[C@H](O)[C@H](O[C@H]3[C@H](O)[C@H](O)[C@H](O[C@H]4[C@H](O)[C@H](O)[C@H](O[C@H]5[C@H](O)[C@H](O)[C@H](O[C@H]6[C@H](O)[C@H](O)C(O)O[C@@H]6CO)O[C@@H]5CO)O[C@@H]4CO)O[C@@H]3CO)O[C@@H]2CO)[C@@H](O)[C@@H](O)[C@@H]1O (some centres unmarked) [M6, mannohexaose] |
